Laboratory results from patent US8343696B2, “Colored curable composition, fluorine-containing dipyrromethene compound and tautomer thereof, and fluorine-containing dipyrromethene metal complex and tautomer thereof, and color filter using the same and method for producing the color filter” (FUJIFILM Corporation, priority 2008, dated 2013).

How the values were obtained:
Type in all cases: physicochemical
[1] = Absorption spectrum in ethyl acetate solution (spectrophotometer UV-2400PC)
Description: In consideration of film thickness, the molar absorption coefficient of the specific metal complex compounds-1, -2, -3 and -4 of the invention is preferably as high as possible, and 60,000 or higher is preferable. The maximum absorption wavelength (λmax) thereof is preferably from 520 nm to 580 nm, and more preferably from 530 nm to 570 nm, in order to improve color purity. The maximum absorption wavelength and the molar absorption coefficient are determined by using a spectrophotometer UV-2400PC (manufactured by Shimadzu Corporation).
The molar absorption coefficient (ε) of each of the obtained compounds was measured in an ethyl acetate solution using a spectrophotometer (trade name: UV-2400PC; manufactured by Shimadzu Corporation). The absorbance (Abs) at 450 nm was evaluated by normalizing the absorbance at a maximum absorption wavelength (λmax) to 1.0. […] The measurement results of the absorbance (Abs value), maximum absorption wavelength (λmax), and molar absorption coefficient (ε) are shown in Table 1.
By the method similar to the reaction scheme in Synthesis Example 1 above, the exemplary compounds (dipyrromethene metal complex compounds or tautomers thereof) shown in Table 1 were synthesized. The identification of the compounds and the measurement of the maximum absorption wavelength (λmax) and the molar absorption coefficient (ε) of the compounds were performed similarly to Synthesis Example 1 above.

[2] = Storage stability of colored resist solution (precipitation after one month at room temperature); set-up: key: A: No precipitation was observed; B: Slight precipitation was observed; C: Precipitation was observed; settings: negative-working colored resist solution, visual precipitation
Text: 9.4 g of the resist solution obtained in section 1 above and 0.35 g of the exemplary compound Ia-12 synthesized above (a compound represented by Formula (4): dipyrromethene complex compound) were mixed and dissolved, whereby a colored resist solution (a negative-working ultraviolet-sensitive colored curable composition) was obtained.
The colored resist solution was stored for one month at room temperature, and then degree of precipitation was visually observed. The storage stability was evaluated according to the following criteria.
A: No precipitation was observed
B: Slight precipitation was observed
C: Precipitation was observed

[3] = Transmittance at 450 nm of the color filter; settings: negative-working colored resist, 1.0 μm film; transmittance at λmax normalized to 2%
Description: The colored resist solution obtained in section 3 above was applied to an undercoat layer side of the glass substrate having an undercoat layer obtained in section 2 above by a spin coater such that a film thickness was 1.0 μm. Subsequently, the film was pre-baked at 100° C. for 120 sec, whereby a monochromatic color filter was obtained.
The transmission spectrum of the color filter obtained above was measured, and the transmittance at 450 nm was evaluated according to the following criteria. The transmittance of the color filter at 450 nm was evaluated by correcting (normalizing) the transmittance at the maximum absorption wavelength of the colorant included in the color filter to 2%. A larger transmittance indicates greater transmission of blue light, which indicates favorable magenta or violet color that can be used in a blue filter.
A: Transmittance at 450 nm was 90% or more
B: Transmittance at 450 nm was 80% or more but not more than 90%
C: Transmittance at 450 nm was not more than 80%

[4] = Heat resistance of coating film (color difference ΔEab before and after heating); settings: 100° C. for 1 hour on hot plate
Description: A glass substrate having undercoat layer formed by applying the colored resin composition obtained in section 3 above was heat-treated at 100° C. for 1 hour using a hot plate, and the color difference (ΔEab) between before and after the heating was determined by using a […] MCPD-1000 (trade name, manufactured by Otsuka Electronics Co., Ltd.). The heat resistance was evaluated according to the following criteria. A smaller AEab value indicates better heat resistance.
(§1) A: ΔEab value was less than 6
(§2) B: ΔEab value was from 6 to 10
(§3) C: ΔEab value was more than 10

[5] = Light-fastness of coating film (color difference ΔEab before and after xenon lamp irradiation); settings: xenon lamp 20,000 luxes for 10 hours (200,000 lux·h)
Description: A glass substrate having undercoat layer formed by applying the colored resin composition obtained in section 3 above was irradiated with a xenon lamp at an intensity of 20,000 luxes for 10 hours (equivalent to 200,000 lux·h), and the color difference ΔEab between before and after the irradiation was determined. The light-fastness was evaluated according to the following criteria. A smaller ΔEab value indicates better light-fastness.
as §1, §2, §3

| SMILES | maximum absorption wavelength (λmax) [1] | molar absorption coefficient (ε) [1] | Abs value at 450 nm when normalized to Abs = 1.0 at λmax [1] | Storage stability [2] | Heat resistance [4] | Light-fastness [5] | Transmittance at 450 nm [3] |
| --- | --- | --- | --- | --- | --- | --- | --- |
| CC1CC(C(C)(C)C)C(OC(=O)c2c(-c3ccccc3)c(C=C3N=C(NC(=O)C(C)(C)C)C(C#N)=C3c3ccccc3)[n]([Zn][OH])c2NC(=O)c2cccc(C(F)(F)F)c2)C(C(C)(C)C)C1 (centres unmarked) [Ib-14] | 561 nm | 85,200 | 0.0105 | A | A (ΔEab value was less than 6) | A (ΔEab value was less than 6) | A (Transmittance at 450 nm was 90% or more) |
| CC1CC(C(C)(C)C)C(OC(=O)c2c(-c3ccccc3)c3[n](c2NC(=O)c2cccc(C(F)(F)F)c2)[Zn-]([OH])[N+]2=C(NC(=O)C(C)SCCCS(=O)(=O)[O-])C(C#N)=C(c4ccccc4)C2=C3)C(C(C)(C)C)C1.[Na+] (centres unmarked) [Ib-20] | 563 nm | 88,700 | 0.0142 | A | B (ΔEab value was from 6 to 10) | B (ΔEab value was from 6 to 10) | A (Transmittance at 450 nm was 90% or more) |
| CC1CC(C(C)(C)C)C(OC(=O)c2c(-c3ccccc3)c(C=C3N=C(NC(=O)C(C)SCCCS(=O)(=O)[O-])C(C#N)=C3c3ccccc3)[n]([Zn][OH])c2NC(=O)c2cc(F)cc(F)c2)C(C(C)(C)C)C1.[Na+] (centres unmarked) [Ib-40] | 562 nm | 95,600 | 0.0082 | A | B (ΔEab value was from 6 to 10) | B (ΔEab value was from 6 to 10) | A (Transmittance at 450 nm was 90% or more) |
| CC1CC(C(C)(C)C)C(OC(=O)c2c(-c3ccccc3)c3[n](c2NC(=O)c2cc(C(F)(F)F)cc(C(F)(F)F)c2)[Zn-]([OH])[N+]2=C(NC(=O)C(C)Sc4cc(C(=O)O)cc(C(=O)O)c4)C(C#N)=C(c4ccccc4)C2=C3)C(C(C)(C)C)C1 (centres unmarked) [Ib-41] | 562 nm | 76,500 | 0.0195 | A | A (ΔEab value was less than 6) | A (ΔEab value was less than 6) | A (Transmittance at 450 nm was 90% or more) |
| CC1CC(C(C)(C)C)C(OC(=O)c2c(-c3ccccc3)c3[n](c2NC(=O)c2cccc(F)c2C(=O)O)[Zn-]([OH])[N+]2=C(NC(=O)C(C)Sc4cc(C(=O)O)cc(C(=O)O)c4)C(C#N)=C(c4ccccc4)C2=C3)C(C(C)(C)C)C1 (centres unmarked) [Ib-46] | 560 nm | 66,100 | 0.0186 | B | A (ΔEab value was less than 6) | A (ΔEab value was less than 6) | A (Transmittance at 450 nm was 90% or more) |
| CC1CC(C(C)(C)C)C(OC(=O)c2c(-c3ccccc3)c3[n](c2NC(=O)c2cc(F)ccc2NS(C)(=O)=O)[Zn-]([OH])[N+]2=C(NC(=O)C(C)Sc4cc(C(=O)O)cc(C(=O)O)c4)C(C#N)=C(c4ccccc4)C2=C3)C(C(C)(C)C)C1 (centres unmarked) [Ib-49] | 566 nm | 91,500 | 0.0116 | B | A (ΔEab value was less than 6) | A (ΔEab value was less than 6) | A (Transmittance at 450 nm was 90% or more) |

Further lines, with some results ahead:

| maximum absorption wavelength (λmax) [1] | molar absorption coefficient (ε) [1] | Abs value at 450 nm when normalized to Abs = 1.0 at λmax [1] | Storage stability [2] | Heat resistance [4] | Light-fastness [5] | SMILES | Transmittance at 450 nm [3] |
| --- | --- | --- | --- | --- | --- | --- | --- |
| 558 nm | 83,200 | 0.0099 | A | A (ΔEab value was less than 6) | A (ΔEab value was less than 6) | Cc1c(C(=O)OC2C(C(C)(C)C)CC(C)CC2C(C)(C)C)c(NC(=O)c2ccc(C(F)(F)F)cc2)[n]2c1C=C1C(c3ccccc3)=C(C#N)C(NC(=O)C(C)Sc3cc(C(=O)O)cc(C(=O)O)c3)=[N+]1[Zn-]2[OH] (centres unmarked) [Ia-23] | A (Transmittance at 450 nm was 90% or more) |
| 559 nm | 90,100 | 0.0106 | A | A (ΔEab value was less than 6) | A (ΔEab value was less than 6) | Cc1c(C(=O)OC2C(C(C)(C)C)CC(C)CC2C(C)(C)C)c(NC(=O)c2ccc(F)c(F)c2)[n]2c1C=C1C(c3ccccc3)=C(C#N)C(NC(=O)C(C)Sc3cc(C(=O)O)cc(C(=O)O)c3)=[N+]1[Zn-]2[OH] (centres unmarked) [Ia-35] | A (Transmittance at 450 nm was 90% or more) |
| 558 nm | 79,400 | 0.0191 | A | A (ΔEab value was less than 6) | A (ΔEab value was less than 6) | Cc1c(C(=O)OC2C(C(C)(C)C)CC(C)CC2C(C)(C)C)c(NC(=O)c2cc(F)cc(F)c2)[n]2c1C=C1C(c3ccccc3)=C(C#N)C(NC(=O)C(C)Sc3cc(C(=O)O)cc(C(=O)O)c3)=[N+]1[Zn-]2[OH] (centres unmarked) [Ia-38] | A (Transmittance at 450 nm was 90% or more) |
| 562 nm | 87,100 | 0.0089 | A | A (ΔEab value was less than 6) | A (ΔEab value was less than 6) | CC1CC(C(C)(C)C)C(OC(=O)c2c(-c3ccccc3)c3[n](c2NC(=O)c2cccc(C(F)(F)F)c2)[Zn-]([OH])[N+]2=C(NC(=O)C(C)Sc4cc(C(=O)O)cc(C(=O)O)c4)C(C#N)=C(c4ccccc4)C2=C3)C(C(C)(C)C)C1 (centres unmarked) [Ib-15] | A (Transmittance at 450 nm was 90% or more) |
| 562 nm | 80,500 | 0.0173 | A | A (ΔEab value was less than 6) | A (ΔEab value was less than 6) | CC1CC(C(C)(C)C)C(OC(=O)c2c(-c3ccccc3)c3[n](c2NC(=O)c2ccc(F)c(F)c2)[Zn-]([OH])[N+]2=C(NC(=O)C(C)Sc4cc(C(=O)O)cc(C(=O)O)c4)C(C#N)=C(c4ccccc4)C2=C3)C(C(C)(C)C)C1 (centres unmarked) [Ib-35] | A (Transmittance at 450 nm was 90% or more) |
